Values joined by “and” are separate entries in the source; they are usually repeats but may differ in a detail not shown here. Equal values may be shown once.
How the values were obtained:
[1] = system: amphotropic murine leukemia virus; test: AMLV pseudotyped virus entry counter-screen, same infection protocol; assay type: cell-based; details: peptide library screen; cell entry inhibition vs uninhibited control
Description: Infection of hepatoma cell lines with HCV pseudotype particles and screen for inhibitory peptides. The hepatoma cells, Huh7, was seeded at 8000 cells in 90 ul medium in 96-well plate. In the case of the inhibitor screen, the inhibitor was incubated with cells for one hour at 37° C. and then 50 ul viral supernatant was added to the cells 24 hours after seeding. The viral stock was pre-tittered and diluted to yield approximately 10,000 to 20,000 RLU. The cells were incubated at 37° C. with 5% CO2 for additional 72 hours and were harvested for luciferase assay. Peptide stocks were prepared in 100% DMSO at 10 mg/ml and were first screened at 100 ug/ml and then a dose responsive curve was generated with 10 points 3-fold titration starting from 100 ug/ml.
The specificity of the peptides were counter-screened with AMLV and HIV pseudotyped viruses using the same infection protocol.

HCV pseudoparticles = test: HCV pseudoparticle (HCVpp) entry assay in Huh7 hepatoma cells, luciferase readout; assay type: cell-based, hepatitis C virus; details: for % of control at ~30 uM: percentage of hepatitis C virus cellular entry at 30 μM peptide vs uninhibited control; for viral entry as a percentage of the uninhibited control: HCV entry, duplicates; for activity compared to the wild type 13-mer peptide: HCVpp entry inhibition, in words
Procedure, shortened: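 Huh7 cells were pre-treated with peptide for 1 h at 37 °C before exposure to HCV E1/E2-pseudotyped HIV luciferase particles made in 293T cells, followed by 72 h culture and luciferase readout. Peptides were tested at 10 points, 3-fold, from 100 ug/ml; particles lacking envelope served as non-specific entry control.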

[2] = 0.1 nM of peptide (printed for three rows), two values per peptide and row
[3] = 0.3 nM of peptide, two values per peptide
[4] = 1 nM of peptide, two values per peptide
[5] = 3 nM of peptide, two values per peptide
[6] = 10 nM of peptide, two values per peptide
[7] = 30 nM of peptide, two values per peptide
[8] = 100 nM of peptide, two values per peptide
[9] = 300 nM of peptide, two values per peptide
[10] = truncated peptides tested at 50 uM in 1% DMSO
[11] = 0.1 nM of peptide (three lines)

Substance: A-A-L-C-S-A-M-Y-V-G-D-L-C-G-S-V [SEQ ID NO: 14]
- AMLVpp % inh [1]: −42%
- HCVpp % inh (HCV pseudoparticles; peptide library screen, first screened at 100 ug/ml, cell entry inhibition vs uninhibited control): 39%

Substance: K-I-K-W-E-Y-V-L-L-L-F-L-L [SEQ ID NO: 101]
- % control (HCVpp entry), lysine scanning (HCV pseudoparticles; [2]): 83 % control and 107 % control and 77 % control and 104 % control and 119 % control and 101 % control
- % control (HCVpp entry), lysine scanning (HCV pseudoparticles; [3]): 96 % control and 103 % control
- % control (HCVpp entry), lysine scanning (HCV pseudoparticles; [4]): 65 % control and 90 % control
- % control (HCVpp entry), lysine scanning (HCV pseudoparticles; [5]): 52 % control and 77 % control
- % control (HCVpp entry), lysine scanning (HCV pseudoparticles; [6]): 54 % control and 57 % control
- % control (HCVpp entry), lysine scanning (HCV pseudoparticles; [7]): 37 % control and 28 % control
- % control (HCVpp entry), lysine scanning (HCV pseudoparticles; [8]): 26 % control and 25 % control
- % control (HCVpp entry), lysine scanning (HCV pseudoparticles; [9]): 26 % control and 29 % control
- % of control at ~30 uM (HCV pseudoparticles): 4%

Substance: K-W-E-Y-V-L-L-L-F-L-L (KWEYVLLLFLL; HCV peptide) [SEQ ID NO: 108, N-terminal truncation]
- HCVpp % inh (HCV pseudoparticles; [10]): 78%

Substance: LLFLLLVYEWKIA [retro-inverso]
- viral entry as a percentage of the uninhibited control (HCV pseudoparticles; [11]): 97%
- viral entry as a percentage of the uninhibited control (HCV pseudoparticles; 0.3 nM of peptide, 0.0003 µM): 91% and 81% and 74% and 99% and 126% and 117%
- viral entry as a percentage of the uninhibited control (HCV pseudoparticles; 1 nM of peptide, 0.001 µM): 83% and 72% and 91% and 115% and 106%
- viral entry as a percentage of the uninhibited control (HCV pseudoparticles; 3 nM of peptide, 0.003 µM): 88% and 68% and 78% and 92% and 86% and 98%
- viral entry as a percentage of the uninhibited control (HCV pseudoparticles; 10 nM of peptide, 0.01 µM): 66% and 100% and 76% and 84% and 128% and 104%
- viral entry as a percentage of the uninhibited control (HCV pseudoparticles; 30 nM of peptide, 0.03 µM): 68% and 62% and 76% and 113% and 121% and 110%
- viral entry as a percentage of the uninhibited control (HCV pseudoparticles; 30000 nM of peptide, 30 µM): 107% and 87% and 103% and 125% and 95%
- activity compared to the wild type 13-mer peptide (HCV pseudoparticles): completely lost activity

Substance: LLFLLLVYEWKIA [retro]
- viral entry as a percentage of the uninhibited control (HCV pseudoparticles; [11]): 90%
- viral entry as a percentage of the uninhibited control (HCV pseudoparticles; 0.1 nM of peptide (three lines), 0.0001 µM): 107%
- viral entry as a percentage of the uninhibited control (HCV pseudoparticles; 0.3 nM of peptide, 0.0003 µM): 88% and 98% and 86% and 95% and 91%
- viral entry as a percentage of the uninhibited control (HCV pseudoparticles; 1 nM of peptide, 0.001 µM): 94% and 86% and 97% and 81% and 51% and 88%
- viral entry as a percentage of the uninhibited control (HCV pseudoparticles; 3 nM of peptide, 0.003 µM): 62% and 99% and 121% and 76% and 77% and 66%
- viral entry as a percentage of the uninhibited control (HCV pseudoparticles; 10 nM of peptide, 0.01 µM): 52% and 95% and 93% and 81% and 68% and 77%
- viral entry as a percentage of the uninhibited control (HCV pseudoparticles; 100 nM of peptide, 0.1 µM): 72% and 101% and 79% and 99% and 65% and 62%
- viral entry as a percentage of the uninhibited control (HCV pseudoparticles; 30000 nM of peptide, 30 µM): 104% and 110% and 73% and 90% and 96% and 80%
- activity compared to the wild type 13-mer peptide (HCV pseudoparticles): completely lost activity

Substance: P-I-K-W-E-Y-V-L-L-L-F-L-L [SEQ ID NO: 99]
- % control (HCVpp entry), proline scanning (HCV pseudoparticles; [2]): 64 % control and 84 % control and 108 % control and 70 % control and 101 % control and 121 % control
- % control (HCVpp entry), proline scanning (HCV pseudoparticles; [3]): 84 % control and 80 % control
- % control (HCVpp entry), proline scanning (HCV pseudoparticles; [4]): 75 % control and 89 % control
- % control (HCVpp entry), proline scanning (HCV pseudoparticles; [5]): 68 % control and 56 % control
- % control (HCVpp entry), proline scanning (HCV pseudoparticles; [6]): 45 % control and 53 % control
- % control (HCVpp entry), proline scanning (HCV pseudoparticles; [7]): 28 % control and 36 % control
- % control (HCVpp entry), proline scanning (HCV pseudoparticles; [8]): 21 % control and 34 % control
- % control (HCVpp entry), proline scanning (HCV pseudoparticles; [9]): 21 % control and 29 % control
- % control (HCVpp entry), proline scanning (HCV pseudoparticles; 10000 nM of peptide, two values per peptide): 24 % control and 16 % control
- % of control at ~30 uM (HCV pseudoparticles): 21%

Substance: S-F-A-I-K-W-E-Y-V-L-L-L-F-L-L [SEQ ID NO: 104]
- HCVpp % inh (HCV pseudoparticles; [10]): 91%

— patent US20100119483A1, “PEPTIDE VIRAL ENTRY INHIBITORS” (Schering Corporation, priority 2004, published 2010)
